The values below come from PMC6315376 (Cell Reports, 2019).

Where only a bound is given, the exact number is not on record here.

One test has as its system LRP6. Put plainly: Western blot of endogenous LRP6 in HEK293T cells overexpressing AAK1. To be noted: FLAG-AAK1 overexpression, 100 nm, 6 hr. It counts as cell-based, human.
For another test, the target named is PIP5K1C (Homo sapiens, UniProt O60331). Briefly: PIP5K1C enzyme assay, ADP-Glo format. It counts as biochemical.
Test [1] has as its target T1, AAK1 (Homo sapiens, UniProt Q2M2I8). Put plainly: biochemical. To be noted: IC50 for inhibition of AAK1 enzymatic activity, 46 μM ATP (at Km).
Target sequence in this assay (Q2M2I8 27-365): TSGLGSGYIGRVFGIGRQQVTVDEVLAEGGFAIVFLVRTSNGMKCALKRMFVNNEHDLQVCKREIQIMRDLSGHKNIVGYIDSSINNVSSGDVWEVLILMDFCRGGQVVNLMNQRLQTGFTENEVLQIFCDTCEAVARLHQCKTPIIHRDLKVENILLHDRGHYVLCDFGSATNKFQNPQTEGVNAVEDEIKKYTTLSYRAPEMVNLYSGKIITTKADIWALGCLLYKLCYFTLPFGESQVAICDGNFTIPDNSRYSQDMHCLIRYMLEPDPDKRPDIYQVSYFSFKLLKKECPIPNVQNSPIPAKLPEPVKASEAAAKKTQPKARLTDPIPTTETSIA
For test [2], the target named is T1, AAK1. Briefly: biochemical. Type of test: binding.
Target sequence in this assay (Q2M2I8 31-396): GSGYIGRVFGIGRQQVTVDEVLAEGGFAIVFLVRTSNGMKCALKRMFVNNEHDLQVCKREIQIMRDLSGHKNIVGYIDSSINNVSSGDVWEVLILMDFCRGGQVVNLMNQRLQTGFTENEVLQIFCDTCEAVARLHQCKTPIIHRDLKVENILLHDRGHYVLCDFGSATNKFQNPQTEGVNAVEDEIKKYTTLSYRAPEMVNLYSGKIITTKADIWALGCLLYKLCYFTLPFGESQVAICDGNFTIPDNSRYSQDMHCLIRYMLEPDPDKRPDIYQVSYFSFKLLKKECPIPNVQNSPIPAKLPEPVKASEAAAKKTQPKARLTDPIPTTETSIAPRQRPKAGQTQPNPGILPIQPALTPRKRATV
The subject of another test is phospho-AP2M1 (Thr156). Put plainly: Western blot of phospho-AP2M1. Type of test: cell-based, human. To be noted: HEK293T cells, 2 hr, concentration-dependent.
The subject of another test is LRP6 surface levels. Put plainly: LRP6 surface staining by flow cytometry in HEK293T cells. It counts as cell-based, human. As to conditions: co-treatment with WNT3A, 8 hr.
The subject of test [3] is β-catenin-activated Firefly luciferase reporter (BAR). Briefly: BAR luciferase reporter assay in HT1080-B/R stable cells. As to conditions: AAK1 siRNA 56 hr, then treatment 16 hr. It counts as cell-based, human.
A further test concerns phospho-AP2M1 (T156). Put plainly: Western blot of phospho-AP2M1. Type of test: cell-based, human. As to conditions: HT1080 cells, 1 μM, without WNT3A.

Sequence of PIP5K1C (O60331 whole entry): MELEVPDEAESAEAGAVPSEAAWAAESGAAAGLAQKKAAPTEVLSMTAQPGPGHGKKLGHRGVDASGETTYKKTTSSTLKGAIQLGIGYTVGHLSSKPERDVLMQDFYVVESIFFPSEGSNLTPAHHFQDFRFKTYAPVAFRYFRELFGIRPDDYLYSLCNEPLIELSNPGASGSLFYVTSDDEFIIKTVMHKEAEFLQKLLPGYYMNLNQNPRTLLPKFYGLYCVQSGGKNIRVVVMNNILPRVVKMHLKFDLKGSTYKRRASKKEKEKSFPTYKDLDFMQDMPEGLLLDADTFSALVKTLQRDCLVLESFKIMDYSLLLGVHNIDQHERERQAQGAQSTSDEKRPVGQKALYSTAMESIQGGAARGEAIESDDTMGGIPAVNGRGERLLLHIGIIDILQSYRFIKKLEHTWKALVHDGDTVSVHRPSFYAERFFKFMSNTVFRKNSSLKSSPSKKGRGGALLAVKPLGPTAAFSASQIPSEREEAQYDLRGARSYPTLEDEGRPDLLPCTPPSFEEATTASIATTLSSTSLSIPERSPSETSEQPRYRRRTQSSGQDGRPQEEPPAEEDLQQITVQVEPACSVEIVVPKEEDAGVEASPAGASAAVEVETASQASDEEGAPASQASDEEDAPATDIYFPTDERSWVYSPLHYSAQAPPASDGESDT

As to `CO/C1=C\C(C)=C\[C@@H](C)[C@@H](O)[C@@H](C)C/C(C)=C/C=C/[C@H](OC)[C@@H]([C@@H](C)[C@@H](O)[C@H](C)[C@@]2(O)C[C@@H](O)[C@H](C)[C@@H](C(C)C)O2)OC1=O` [bafilomycin A1], the “AAK1-driven downregulation of LRP6” value with LRP6 is “rescued AAK1-driven downregulation of LRP6”.
Consider `CC(C)C(=O)Nc1n[nH]c2cc(-c3cccc(NS(=O)(=O)C4CC4)c3)ccc12` [34A, N-(6-(3-(cyclopropanesulfonamido)phenyl)-1H-indazol-3-yl)isobutyramide], for which the IC50 is 3.6 µM against PIP5K1C and greater than 1 µM at AAK1 [1]. This compound also had a Ki on AAK1 [2] of 2 µM.
For the compound `CCN(CC)S(=O)(=O)Nc1cccc(-c2ccc3c(NC(=O)C4CC4)n[nH]c3c2)c1` [SGC-AAK1-1, N-(6-(3-((N,N-diethylsulfamoyl)amino)phenyl)-1H-indazol-3-yl)cyclopropanecarboxamide], in the test with phospho-AP2M1 (Thr156), the “phosphorylation of the AP2M1 subunit at Thr156” value is “inhibited the phosphorylation of the AP2M1 subunit at Thr156”. For the same compound, in the test on LRP6 surface levels, the “rescue of the WNT3A-induced decrease of LRP6 surface levels” value is reported as “rescued”.
With `CN(C)CCCN1c2ccccc2Sc2ccc(Cl)cc21` [chlorpromazine], the “WNT signaling (BAR) induced by AAK1 silencing” value in test [3] is listed as “suppressed WNT signaling induced by AAK1 silencing”.
For `Cc1c[nH]c(-c2cnc(NCCNc3ccc(C#N)cn3)nc2-c2ccc(Cl)cc2Cl)n1` [CHIR99021], in the test on phospho-AP2M1 (T156), the pAP2M1 levels result is reported as “did not result in elevated pAP2M1 levels”.
